This is an account of results in patent US9051330B2, “Dithiolopyrrolones with therapeutic activity” (Welichem Biotech Inc., priority 2002, dated 2015).

What all share (type): cell-based, human
In one experiment the test system is H460. As to the kind of experiment: NCI standard anti-proliferative test, H460 cells.
A further experiment concerns Ovcar-3 cell line. As to the kind of experiment: NCI standard anti-proliferative test, ovarian cancer Ovcar-3 cells. The source says: (§1) These assays are commonly used by those skilled in the art and are accepted as indicative of antiproliferative activity in mammals. The antiproliferative activities of the compounds of the invention have been determined in cell cultures of human ovarian cancer, using a standard anti-proliferative test of the US National Cancer Institute (NCI). [Monks, A. et al., J. Natl. Cancer Inst. 83(11): 757-766, 1991].
The novel compound had activity against 56 cancer cell lines of a wide range of major cancers. (Table 1a).

A further experiment deals with CCRF-CEM. The experiment in a line: NCI anti-proliferative test, Leukemia CCRF-CEM.
In a further experiment the test system is HL-60(TB). As to the kind of experiment: NCI anti-proliferative test, Leukemia HL-60(TB).
A further experiment relates to K-562. The experiment in a line: NCI anti-proliferative test, Leukemia K-562.
A further experiment has as its system MOLT-4. As to the kind of experiment: NCI anti-proliferative test, Leukemia MOLT-4.
The next experiment relates to RPMI-8226. As to the kind of experiment: NCI anti-proliferative test, Leukemia RPMI-8226.
The next experiment concerns SR. The experiment in a line: NCI anti-proliferative test, Leukemia SR.
The next experiment concerns A549/ATCC. The experiment in a line: NCI anti-proliferative test, Non-Small Cell Lung Cancer A549/ATCC.
Another experiment has as its system EKVX. The experiment in a line: NCI anti-proliferative test, Non-Small Cell Lung Cancer EKVX.
Another experiment deals with HOP-62. As to the kind of experiment: NCI anti-proliferative test, Non-Small Cell Lung Cancer HOP-62.
The subject of another experiment is HOP-92. As to the kind of experiment: NCI anti-proliferative test, Non-Small Cell Lung Cancer HOP-92.
A further experiment has as its system NCI-H226. The experiment in a line: NCI anti-proliferative test, Non-Small Cell Lung Cancer NCI-H226.
The test system of the next experiment is NCI-H23. As to the kind of experiment: NCI anti-proliferative test, Non-Small Cell Lung Cancer NCI-H23.
The subject of another experiment is NCI-H322M. As to the kind of experiment: NCI anti-proliferative test, Non-Small Cell Lung Cancer NCI-H322M.
For another experiment, the system named is NCI-H522. The experiment in a line: NCI anti-proliferative test, Non-Small Cell Lung Cancer NCI-H522.
The subject of the next experiment is COLO 205. The experiment in a line: NCI anti-proliferative test, Colon Cancer COLO 205.
The subject of a further experiment is HCC-2998. As to the kind of experiment: NCI anti-proliferative test, Colon Cancer HCC-2998.
The subject of another experiment is HCT-116. As to the kind of experiment: NCI anti-proliferative test, Colon Cancer HCT-116.
Another experiment has as its system HCT-15. As to the kind of experiment: NCI anti-proliferative test, Colon Cancer HCT-15.
The next experiment has as its system HT29. The experiment in a line: NCI anti-proliferative test, Colon Cancer HT29.
For the next experiment, the system named is KM12. As to the kind of experiment: NCI anti-proliferative test, Colon Cancer KM12.
A further experiment deals with SW-620. The experiment in a line: NCI anti-proliferative test, Colon Cancer SW-620.
A further experiment has as its system SF-268. The experiment in a line: NCI anti-proliferative test, CNS Cancer SF-268.
A further experiment deals with SF-295. The experiment in a line: NCI anti-proliferative test, CNS Cancer SF-295.
The subject of another experiment is SF-539. As to the kind of experiment: NCI anti-proliferative test, CNS Cancer SF-539.
The next experiment relates to SNB-19. As to the kind of experiment: NCI anti-proliferative test, CNS Cancer SNB-19.
The next experiment relates to U251. As to the kind of experiment: NCI anti-proliferative test, CNS Cancer U251.
For the next experiment, the system named is LOX IMVI. The experiment in a line: NCI anti-proliferative test, Melanoma LOX IMVI.
Another experiment concerns MALME-3M. As to the kind of experiment: NCI anti-proliferative test, Melanoma MALME-3M.
The test system of another experiment is M14. As to the kind of experiment: NCI anti-proliferative test, Melanoma M14.
The test system of the next experiment is SK-MEL-2. As to the kind of experiment: NCI anti-proliferative test, Melanoma SK-MEL-2.
For a further experiment, the system named is SK-MEL-28. As to the kind of experiment: NCI anti-proliferative test, Melanoma SK-MEL-28.
A further experiment deals with SK-MEL-5. The experiment in a line: NCI anti-proliferative test, Melanoma SK-MEL-5.
The next experiment relates to UACC-257. The experiment in a line: NCI anti-proliferative test, Melanoma UACC-257.
In the next experiment the test system is UACC-62. The experiment in a line: NCI anti-proliferative test, Melanoma UACC-62.
Another experiment concerns IGROV1. As to the kind of experiment: NCI anti-proliferative test, Ovarian Cancer IGROV1.
Source text: as §1

For the next experiment, the system named is OVCAR-5. The experiment in a line: NCI anti-proliferative test, Ovarian Cancer OVCAR-5.
Source text: as §1

For a further experiment, the system named is OVCAR-8. The experiment in a line: NCI anti-proliferative test, Ovarian Cancer OVCAR-8.
Source text: as §1

For another experiment, the system named is 786-0. The experiment in a line: NCI anti-proliferative test, Renal Cancer 786-0.
Another experiment concerns A498. As to the kind of experiment: NCI anti-proliferative test, Renal Cancer A498.
The subject of another experiment is ACHN. The experiment in a line: NCI anti-proliferative test, Renal Cancer ACHN.
In the next experiment the test system is CAKI-1. The experiment in a line: NCI anti-proliferative test, Renal Cancer CAKI-1.
For a further experiment, the system named is RXF 393. As to the kind of experiment: NCI anti-proliferative test, Renal Cancer RXF 393.
The next experiment deals with SN12C. The experiment in a line: NCI anti-proliferative test, Renal Cancer SN12C.
In a further experiment the test system is TK-10. The experiment in a line: NCI anti-proliferative test, Renal Cancer TK-10.
The next experiment has as its system UO-31. As to the kind of experiment: NCI anti-proliferative test, Renal Cancer UO-31.
For another experiment, the system named is PC-3. The experiment in a line: NCI anti-proliferative test, Prostate Cancer PC-3.
A further experiment has as its system DU-145. As to the kind of experiment: NCI anti-proliferative test, Prostate Cancer DU-145.
Another experiment concerns MCF7. The experiment in a line: NCI anti-proliferative test, Breast Cancer MCF7.
Another experiment has as its system NCI/ADR-RES. The experiment in a line: NCI anti-proliferative test, Breast Cancer NCI/ADR-RES.
A further experiment deals with MDA-MB-231/ATCC. As to the kind of experiment: NCI anti-proliferative test, Breast Cancer MDA-MB-231/ATCC.
In the next experiment the test system is HS 578T. The experiment in a line: NCI anti-proliferative test, Breast Cancer HS 578T.
The next experiment concerns MDA-MB-435. As to the kind of experiment: NCI anti-proliferative test, Breast Cancer MDA-MB-435.
In another experiment the test system is BT-549. As to the kind of experiment: NCI anti-proliferative test, Breast Cancer BT-549.
A further experiment relates to T-47D. As to the kind of experiment: NCI anti-proliferative test, Breast Cancer T-47D.
The mark [1] stands for this setting: cancer cell line H460, read-out: IC50 H460.
The mark [2] stands for this setting: ovarian cancer cells Ovcar-3, comparison with XN3.

Like-named read-outs stand apart in the source and are kept apart here.

In the case of `COc1ccc(-n2c3cssc-3c(NC(=O)CCC(=O)O)c2=O)c(OC)c1` [BLI-031-2], the half-maximal inhibitory concentration (IC50) (commonly the concentration that gives 50% inhibition) in the experiment on H460 (setting [1]) was more than 50000 nM.
In turn, `COc1ccc(-n2c3cssc-3c(NC(=O)c3ccc(C(F)(F)F)cc3)c2=O)c(OC)c1` [BLI-093] had an IC50 in the experiment with Ovcar-3 cell line (setting [2]) of 54 nM.
`COc1ccc(-n2c3cssc-3c(NC(=O)Cc3cccs3)c2=O)c(OC)c1` [Compound 0037] had an IC50 in the experiment with Ovcar-3 cell line (setting [2]) of 71 nM.
On the same count and under the same terms, next, `COc1ccc(-n2c3cssc-3c(NC(=O)c3ccc([N+](=O)[O-])cc3)c2=O)c(OC)c1` [Compound 0038]: 68 nM.
Take `COc1ccc(-n2c3cssc-3c(NC(=O)c3cc(C(F)(F)F)cc(C(F)(F)F)c3)c2=O)c(OC)c1` [Compound 0058]: the IC50 in the experiment on Ovcar-3 cell line (Ovarian Cancer, OVCAR-3, 56 cell line panel) was 30 nM; in the experiment with Ovcar-3 cell line (setting [2]), 34 nM; in the experiment on H460 (Non-Small Cell Lung Cancer, NCI-H460, 56 cell line panel, read-out: IC50) it was 260 nM; with CCRF-CEM it was less than 10 nM; with HL-60(TB), 19 nM; with K-562, 19 nM. Also, the IC50 is 150 nM in the experiment on MOLT-4; less than 10 nM with RPMI-8226; 20 nM in the experiment with SR; 420 nM in the experiment on A549/ATCC; 130 nM in the experiment with EKVX; 130 nM in the experiment on HOP-62. The IC50 in the experiment with HOP-92 was 180 nM; in the experiment on NCI-H226 it was 270 nM; in the experiment on NCI-H23, 210 nM; in the experiment with NCI-H322M, 8560 nM; with NCI-H522, 190 nM; with COLO 205 it was 150 nM. Also, the half-inhibitory concentration (IC50) came out at 110 nM in the experiment on HCC-2998; 16 nM with HCT-116; 20 nM with HCT-15; 50 nM in the experiment on HT29; 2970 nM in the experiment with KM12; 34 nM with SW-620. Besides, the IC50 in the experiment with SF-268 was 140 nM; with SF-295, 230 nM; in the experiment on SF-539, 180 nM; in the experiment on SNB-19 it was 230 nM; with U251, 150 nM; in the experiment with LOX IMVI it was 14 nM. The IC50 is 190 nM in the experiment on MALME-3M; 240 nM in the experiment with M14; 180 nM in the experiment with SK-MEL-2; 16 nM in the experiment on SK-MEL-28; 120 nM in the experiment on SK-MEL-5; 150 nM in the experiment on UACC-257. Moreover, the half-maximal inhibitory concentration (IC50) is 190 nM with UACC-62; 170 nM in the experiment with IGROV1; 450 nM in the experiment with OVCAR-5; 170 nM in the experiment with OVCAR-8; 60 nM in the experiment with 786-0; 190 nM in the experiment on A498. In addition, the IC50 in the experiment on ACHN is 140 nM; in the experiment on CAKI-1, 440 nM; in the experiment with RXF 393, 40 nM; in the experiment with SN12C, 120 nM; with TK-10, 1370 nM; with UO-31 it was 200 nM. In addition, the half-maximal inhibitory concentration (IC50) in the experiment on PC-3 came to 40 nM; in the experiment on DU-145, 13 nM; in the experiment with MCF7, 170 nM; in the experiment on NCI/ADR-RES it was 1040 nM; in the experiment with MDA-MB-231/ATCC, 130 nM; with HS 578T, 220 nM. Besides, the IC50 was 220 nM with MDA-MB-435, 150 nM in the experiment on BT-549 and 13 nM in the experiment on T-47D.
Turning to `COc1ccc(-n2c3cssc-3c(NC(=O)c3ccc(CN4CCNCC4)cc3)c2=O)c(OC)c1` [Compound 0069], in the experiment on H460 (setting [1]), the 50% inhibitory concentration (IC50) was 40 nM.
Regarding `COc1ccc(-n2c3cssc-3c(NC(=O)c3cc(F)cc(F)c3)c2=O)c(OC)c1` [Compound R3], in the experiment with Ovcar-3 cell line (setting [2]), half-maximal inhibition (IC50) was put at 78 nM.
On the same count and under the same terms, to `COc1ccc(-n2c3cssc-3c(NC(=O)c3ccc(F)c(F)c3F)c2=O)c(OC)c1` [Compound R4] belongs 46 nM; to `COc1ccc(-n2c3cssc-3c(NC(=O)c3cccs3)c2=O)c(OC)c1` [WBL-007], 28 nM; to `COc1ccc(-n2c3cssc-3c(NC(=O)c3ccc(F)cc3)c2=O)c(OC)c1` [WBL-018], 70 nM.
